Measurements from patent US8575167B2, “Spiro compounds having stearoyl-CoA desaturase action” (Takeda Pharmaceutical Company Limited, priority 2007, dated 2013).

What was measured:
SCD = molecular target: T1, SCD (Rattus norvegicus, UniProt P07308); test: Measurement of SCD inhibitory activity using microsome (TLC detection system); assay type: biochemical; details: rat liver microsome (20 μg), 15 min, [14C] stearoyl-CoA, test compound (10 mM) diluted to 3/1000 with 3× buffer, 10 μL in 30 μL reaction; for inhibition at 10 µM: read-out: SCD activity inhibitory rate (%)
T1 construct: an enzyme reaction using rat liver microsome (20 μg) was performed for 15 min; from tissue; host or cells: rat liver microsome fraction
T1 sequence (P07308 1-358): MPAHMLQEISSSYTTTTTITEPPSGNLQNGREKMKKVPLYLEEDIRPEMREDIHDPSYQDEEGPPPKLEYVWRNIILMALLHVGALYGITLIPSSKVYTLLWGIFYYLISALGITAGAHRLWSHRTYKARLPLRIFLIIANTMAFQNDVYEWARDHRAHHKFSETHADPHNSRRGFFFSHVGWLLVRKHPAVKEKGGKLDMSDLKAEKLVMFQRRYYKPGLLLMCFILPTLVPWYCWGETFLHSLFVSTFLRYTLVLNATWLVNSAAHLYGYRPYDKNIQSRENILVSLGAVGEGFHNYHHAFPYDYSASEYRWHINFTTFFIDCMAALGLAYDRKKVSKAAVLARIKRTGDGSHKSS
Method: (Test Method: Measurement of SCD Inhibitory Activity Using Microsome (TLC Detection System))
A test compound (10 mM) diluted with DMSO in advance was secondarily diluted to 3/1000 with 3× buffer (300 mmol/L NaH2PO4 [pH 7.4], 450 mM KCl, 30 mM NaF, 9 mM MgCl2, 4.5 mM glutathione [reduced form], 0.3% BSA [fatty acid free, SIGMA]). The test compound (10 μL) diluted with the assay buffer was dispensed to a PP 96-deep well block, and a microsome fraction (10 μL) diluted with a microsome buffer was added thereto. The enzyme reaction was started by the addition of 10 μL of [^14C] stearoyl-CoA (American Radiolabeled Chemicals [ARC], Inc.) diluted to 10 μCi/mL with 9 mmol/L NADH. For evaluation of the compound, an enzyme reaction using rat liver microsome (20 μg) was performed for 15 min. The reaction was quenched by the addition of 10 μL of 2.5N NaOH, a plate seal was applied, and the reaction mixture was incubated overnight in a dry heater set to 65° C. to allow saponification. Solvent extraction of fatty acid was based on the Bligh&Dyer method (1). Formic acid:methanol:chloroform (1:6:3) (200 μL) was added, the state of single layer was maintained, the mixture was sufficiently stirred, and pure water (120 μL) was added to allow separation into two layers. The lower chloroform layer (10 μL) was spotted on reversed-phase TLC plate (RP-18, 1154230001, Merck Japan, Ltd.) and developed with acetonitrile:pure water:acetic:acid (95:4.5:0.5). The TLC plate was dried and transferred onto an Imaging Plate (Fuji Photo Film Co., Ltd.) for not less than 5 hr. For detection, BAS-5000 (Fuji Photo Film Co., Ltd) was used and the obtained spot images were converted to numerical values using Multi Gauge Ver2.3 (Fuji Photo Film Co., Ltd), based on which the SCD activity inhibitory rate (%) was determined.

[1] = test system: Diet-Induced Obesity (DIO) Model Mouse; test: Antiobesity action on diet-induced obesity (DIO) model mouse: liver unsaturation index number (C18:1/C18:0); assay type: in vivo; details: liver C18:1/C18:0 ratio, 0.1 mg/kg body weight by gavage for 4 weeks, n=7
Text: Male C57BL/6J mice (6-week-old) were purchased from CLEA Japan, Inc. The mice were divided into two groups, and a high fat diet (Research Diets, Inc.; solid D12451) was given to one group and a general feed for rearing and breeding (CLEA Japan, Inc.; solid CE-2) was given to the other group.
Each group was reared for 4 months under full feeding, and divided into a diet-induced obesity model group and a general feed group using the body weight and plasma triglyceride concentration as indices. […] of a 0.5% methylcellulose suspension of the compound of Example 15 (0.1 mg/kg body weight) was administered to each of the diet-induced obesity model group and the general feed group by gavage for 4 weeks (each group n=7). […] The body weight of each group was measured during the dosing period. […]
The liver total lipid sample extracted by the above-mentioned procedure was labeled using an ester type fatty acid labeling reagent (YMC). The labeled sample was dissolved in methanol (5 μL) and analyzed using YMC-Pack FA (6.0Φ×250 mm), CH3CN:H2O:0.1% TFA (850:150:2) as a mobile phase at a flow rate of 1.2 mL/min. The peak area of each fatty acid in the sample was determined as a C18:1/C18:0 ratio from the peak area of each standard product and used as an unsaturation index number which is an index of the enzyme activity of SCD. […]

Structure (SMILES): Cc1nsc(-c2ccc(N3CCC4(C3)OCc3ccccc34)nn2)n1 (stereo not shown) [Example 15, 1′-[6-(3-methyl-1,2,4-thiadiazol-5-yl)pyridazin-3-yl]-3H-spiro[2-benzofuran-1,3′-pyrrolidine]]
- inhibition at 10 µM (SCD): 100%
- unsaturation index number (mean ± SD) ([1]; diet-induced obesity model group): 43.886 ± 2.0318
- unsaturation index number (mean ± SD) ([1]; general feed group): 29.017 ± 1.2254

Structure (SMILES): O=C(NCC(O)c1ccccc1)c1ccc(N2CCC3(C=Cc4ccccc43)CC2)nn1 (stereo not shown) [Example 60, N-(2-hydroxy-2-phenylethyl)-6-(1′H-spiro[indene-1,4′-piperidin]-1′-yl)pyridazine-3-carboxamide]
- inhibition at 10 µM (SCD): 98%

Structure (SMILES): O=C(NCCc1cccnc1)c1ccc(N2CCC3(C=Cc4ccccc43)CC2)nn1 [Example 74, N-(2-(pyridin-3-yl)ethyl)-6-(1′H-spiro[indene-1,4′-piperidin]-1′-yl)pyridazine-3-carboxamide]
- inhibition at 10 µM (SCD): 98%

Structure (SMILES): O=C(NCC(O)Cc1ccccc1)c1ccc(N2CCC3(C=Cc4ccccc43)CC2)nn1 (stereo not shown) [Example 86, N-(2-hydroxy-3-phenylpropyl)-6-(1′H-spiro[indene-1,4′-piperidin]-1′-yl)pyridazine-3-carboxamide]
- inhibition at 10 µM (SCD): 100%

Structure (SMILES): O=C(N[C@H]1C[C@@H]1c1ccccc1)c1ccc(N2CCC3(C=Cc4ccccc43)CC2)nn1 [Example 126, N-[(1S,2R)-2-phenylcyclopropyl]-6-(1′H-spiro[indene-1,4′-piperidin]-1′-yl)pyridazine-3-carboxamide]
- inhibition at 10 µM (SCD): 98%

Structure (SMILES): OCc1noc(-c2ccc(N3CCC4(CC3)COc3ccccc34)nn2)n1 [Example 143, {5-[6-(1′H-spiro[1-benzofuran-3,4′-piperidin]-1′-yl)pyridazin-3-yl]-1,2,4-oxadiazol-3-yl}methanol]
- inhibition at 10 µM (SCD): 100%

Structure (SMILES): CC1CSC(c2ccc(N3CCC4(CC3)COc3ccccc34)nn2)=N1 (stereo not shown) [Example 146, 1′-[6-(4-methyl-4,5-dihydro-1,3-thiazol-2-yl)pyridazin-3-yl]spiro[1-benzofuran-3,4′-piperidine]]
- inhibition at 10 µM (SCD): 97%

Structure (SMILES): OCc1nc(-c2ccc(N3CCC4(CC3)COc3ccccc34)nn2)no1 [Example 148, {3-[6-(1′H-spiro[1-benzofuran-3,4′-piperidin]-1′-yl)pyridazin-3-yl]-1,2,4-oxadiazol-5-yl}methanol]
- inhibition at 10 µM (SCD): 100%

Structure (SMILES): Cc1nc(-c2ccc(N3CCC4(C3)OCc3ccccc34)nn2)no1 (stereo not shown) [Example 150, 1′-[6-(5-methyl-1,2,4-oxadiazol-3-yl)pyridazin-3-yl]-3H-spiro[2-benzofuran-1,3′-pyrrolidine]]
- inhibition at 10 µM (SCD): 99%

Structure (SMILES): OCc1noc(-c2ccc(N3CCC4(C3)OCc3ccccc34)nn2)n1 (stereo not shown) [Example 156, {5-[6-(1′H,3H-spiro[2-benzofuran-1,3′-pyrrolidin]-1′-yl)pyridazin-3-yl]-1,2,4-oxadiazol-3-yl}methanol]
- inhibition at 10 µM (SCD): 100%

Structure (SMILES): OCc1noc(-c2ccc(N3CCC4(COc5ccccc54)C3)nn2)n1 (stereo not shown) [Example 157, {5-[6-(1′H-spiro[1-benzofuran-3,3′-pyrrolidin]-1′-yl)pyridazin-3-yl]-1,2,4-oxadiazol-3-yl}methanol]
- inhibition at 10 µM (SCD): 100%

Structure (SMILES): Cc1noc(-c2ccc(N3CCC4(C3)C(=O)N(C)c3ccccc34)nn2)n1 (stereo not shown) [Example 159, 1-methyl-1′-[6-(3-methyl-1,2,4-oxadiazol-5-yl)pyridazin-3-yl]spiro[indole-3,3′-pyrrolidin]-2(1H)-one]
- inhibition at 10 µM (SCD): 99%

Structure (SMILES): Cc1noc(-c2ccc(N3CCC4(Cc5ccccc5O4)C3)nn2)n1 (stereo not shown) [Example 170, 1′-[6-(3-methyl-1,2,4-oxadiazol-5-yl)pyridazin-3-yl]-3H-spiro[1-benzofuran-2,3′-pyrrolidine]]
- inhibition at 10 µM (SCD): 100%

Structure (SMILES): Cc1noc(-c2ccc(N3CCC4(C3)OCc3ccccc34)nn2)n1 (stereo not shown) [Example 177, 1′-[6-(3-methyl-1,2,4-oxadiazol-5-yl)pyridazin-3-yl]-3H-spiro[2-benzofuran-1,3′-pyrrolidine]]
- SCD activity inhibitory rate (%) (SCD): 99%

Structure (SMILES): Cc1noc(-c2ccc(N3CCC4(C3)OCc3ccccc34)nn2)n1 (stereo not shown) [Example 178, 1′-[6-(3-methyl-1,2,4-oxadiazol-5-yl)pyridazin-3-yl]-3H-spiro[2-benzofuran-1,3′-pyrrolidine]]
- SCD activity inhibitory rate (%) (SCD): 97%

Structure (SMILES): Cc1noc(-c2ccc(N3CCC4(COc5ccccc54)C3)nn2)n1 (stereo not shown) [Example 179 (long retention time), 1′-[6-(3-methyl-1,2,4-oxadiazol-5-yl)pyridazin-3-yl]spiro[1-benzofuran-3,3′-pyrrolidine]]
- SCD activity inhibitory rate (%) (SCD): 96%

Structure (SMILES): Cc1noc(-c2ccc(N3CCC4(COc5ccccc54)C3)nn2)n1 (stereo not shown) [Example 179 (short retention time), 1′-[6-(3-methyl-1,2,4-oxadiazol-5-yl)pyridazin-3-yl]spiro[1-benzofuran-3,3′-pyrrolidine]]
- SCD activity inhibitory rate (%) (SCD): 100%
